Source: US20100240603A1, “EXPRESSION INHIBITOR OF NUCLEAR TRANSCRIPTION FACTOR AP-1 AND PHARMACEUTICALS AND PRODUCTS USING THE SAME” (ARKRAY, INC., priority 2006, published 2010)
Values after ≈ are worked out from the molar mass of the structure shown.

What was measured:
NF-κB = NF-κB SEAP reporter assay in TNF-alpha-stimulated HeLa cells; type: cell-based; conditions: TNF-alpha 40 ng/mL, 24 h
Experimental: (§1) HeLa cells were tripsinized and centrifuged at 4° C. and 1,000 rpm for 3 minutes. The collected Hela cells were seeded on a 30-mm dish so that the density was 2×10^5 cells/well, which served as a test plate. With the test plate being placed at 37° C. for 12 hours in the presence of 5% CO2, the cells were cultured and were then transformed. For the transformation, two types of vectors were transfected into the aforementioned cells using a transformation reagent (trade name: Effectene Transfection Reagent, QIAGEN). The vectors used herein were pNF-κB-SEAP (trade name) (CLONTECH) (0.4 μg) and pLuc-control (trade name) (CLONTECH) (0.02 μg). The cells transfected with both of the vectors were cultured at 37° C. for 16 hours in the presence of 5% CO2, and then the cultured cells were detached from the aforementioned test plate using trypsin. The detached cells were dispensed into a 96-well plate so that 0.2×10^4 cells were contained in each well. The cells thus dispensed were cultured for two hours. […] The medium thus collected was evaluated for the secreated alkaline phosphatase (SEAP) activity based on the activity of NF-κB contained in the medium using a kit (trade name: Great EscAPe SEAP kit, CLONTECK). […]

[1] = system: nuclear transcription factor AP-1; assay: nuclear transcription factor AP-1 SEAP reporter assay in TPA-stimulated HeLa cells; type: cell-based; conditions: TPA 4 μg/mL, 24 h
Experimental: as §1, with “were pAP-1 (PMA)-SEAP” for “were pNF-κB-SEAP”, “of the nuclear transcription factor AP-1” for “of NF-κB”, “the medium,” for “the medium”

CC(O)(CC(=O)O)CC(=O)OCC1OC(Oc2cc(O)c3c(=O)cc(-c4ccc(O)cc4)oc3c2)C(O)C(O)C1O (stereo not shown) [chamaemeloside, apigenin 7-glucoside-6″-(3′″-hydroxy-3′″-methyl-glutarate)]
expression of NF-κB (FIG. 3) (NF-κB; HeLa cells): inhibited the expression of NF-κB in a concentration-dependent manner
IC50 (NF-κB; Homo sapiens, HeLa cells transfected with pNF-κB-SEAP and pLuc-control, corrected by luciferase activity, read-out: IC50 of inhibition of NF-κB expression (SEAP activity)): 80 µg/mL (≈ 139 µM)
expression of the nuclear transcription factor AP-1 (FIG. 2) ([1]; HeLa cells, 10, 5.0, 2.5, 1.0 μg/mL): suppressed (inhibited) in a concentration-dependent manner
IC50 ([1]; Homo sapiens, HeLa cells transfected with pAP-1 (PMA)-SEAP and pLuc-control, corrected by luciferase activity, read-out: IC50 of inhibition of nuclear transcription factor AP-1 expression (SEAP activity)): 5 µg/mL (≈ 8.67 µM)
